Entries after “also recorded” stand apart in the source; their conditions may differ. Where a SMILES comes first, the peptide text is derived from it. The star is where a group is joined. Cbz = O=C(OCc1ccccc1)*; CHN2 = [N-]=[N+]=C*; tBu = CC(C)(C)*
How the values were obtained:
[1] = tested on: RSV G protein cleavage in Vero cells; assay: Cell-surface RSV G protein cleavage in rgRSV-infected cells treated with protease inhibitors (biotinylation, immunoblot with mAb L9); assay type: cell-based; conditions: RSV-infected HeLa and Vero cells; 0.1 to 100 μM at 6 hpi; 24 hpi
Procedure: To elucidate the class of protease responsible for G protein cleavage in Vero cells, cells were treated with increasing concentrations of protease inhibitors after inoculating with recombinant green fluorescent protein expressing RSV (rgRSV). Cells were incubated with rgRSV for 2 h with tipping at 37° C. before replacing inoculum with fresh cell culture medium. Drugs were added at different times post infection. In each case, uninfected, no drug, and vehicle (at the highest concentration used) were included in all experiments as controls. In all experiments at 24 hpi, cell surface proteins were biotinylated, cells lysed and equivalent amounts of protein from each sample were mixed with streptavidin beads.
Aprotinin, a serine protease inhibitor, leupeptin, a serine/cysteine protease inhibitor; or E-64, a cysteine protease inhibitor were added to the cell culture media (3.125 to 50 μg/ml) from 2-24 hpi. The most likely proteins to be incorporated into the virions are cell surface proteins, so the cell surfaced was biotinylated, proteins isolated from lysed cells with streptavidin beads, and immunobloted with L9, a mAb to the G protein, as a probe (FIG. 1A). In the untreated and vehicle treated samples most of the cell surface G protein was cleaved (˜55 kDa), leaving only a small portion of full length (˜90 kDa) G protein. […] Since both leupeptin and E64 block the activity of cysteine proteases, the protease responsible for cleavage of the G protein in Vero cells is a cysteine protease.
To narrow the field of cysteine proteases, cells were treated at 6 hpi with a more specific cysteine protease inhibitor, ALLM (0.1 to 100 μM).
RSV-infected HeLa and Vero cells were treated with a cathepsin B inhibitor, CA-074 (0.1 to 100 μM), or a cathepsin L inhibitor, cathepsin L inhibitor III (0.1 to 100 μM) 6 hpi.
Cathepsin L is a protease present primarily in the interior of the lysosome and is optimally active at acidic pH. Vero cells expressing the G protein were treated with chloroquine to raise the pH of the lysosome. […] To generate FIG. 4C, cells were inoculated with RSV or mock inoculated. 6 hpi the cells were treated with increasing concentrations of chloroquine. 24 hpi cells were biotinylated and G protein assayed
HeLa and Vero cells were rgRSV (MOI: 1) or mock inoculated. 2 hpi the inoculum was replaced with fresh complete medium, and 4 hpi cells the medium was changed again to complete medium with 2-fold dilutions of these protease inhibitors (Sigma-Aldrich, St. Louis, Mo.), dissolved in water: Aprotinin (3.125 to 50 μg/ml); Leupeptin (6.25 to 100 μg/ml); E-64 (6.25 to 100 μg/ml); or equal volumes of water in medium. In other experiments, cells were treated at 6 hpi with: 10-fold dilutions (0.1 to 100 μM) of: Cathepsin inhibitor I (Calbiochem); ALLM (Santa Cruz, Dallas, Tex.); Chloroquine diphosphate salt (Sigma Aldrich) or equivalent volumes of vehicle (water); CA-074 (Calbiochem); Cathepsin L inhibitor III (Calbiochem); or an equal volume of vehicle (DMSO) in medium.
At 24 hpi cells were biotinylated with Ez-link Sulfo-NHS-LC-Biotin (Thermo Fisher). Cells were lysed with lysis buffer containing 150 mM NaCl, 1% Triton X-100, 50 mM Tris, 0.1% SDS, and 1× Halt protease cocktail inhibitor (Thermo Fisher). Proteins were quantified using BCA protein assay kit (Pierce, Waltham, Mass.), and equal amounts of protein were added to high capacity streptavidin agarose beads (Thermo Fisher). The mixtures were rotated for 1 h at 4° C., the beads were pelleted and washed with lysis buffer (without protease cocktail inhibitor), NuPage LDS sample buffer was added, and boiled for 5 min, separated by NuPAGE Novex 4-12% bis-tris protein gels and transferred to nitrocellulose in an iBlot transfer stack, using the iBlot transferring system (Life Technologies) for immunoblot analysis. […]

[2] = tested on: G protein from Vero cell virions; assay: Virion-associated G protein of rgRSV grown in Vero cells with cathepsin L inhibitor (immunoblot); assay type: cell-based; conditions: for virion-associated G protein cleavage: rgRSV grown in Vero cells, 0.5 μM inhibitor at 7 hpi, harvested 72 hpi
Procedure: To verify that cathepsin L is sufficient to cleave the G protein, rgRSV was grown in Vero cells in the presence of cathepsin L inhibitor or vehicle. Viruses were harvested and pelleted through a 35% sucrose cushion to separate them from cathepsin L inhibitor. Viruses were resuspended in buffer with pH5.5 and treated with cathepsin L or vehicle. […] Vero cells were inoculated with rgRSV or mock inoculated for 2 h, at which time the inoculum was replaced with fresh medium. Vero cells were treated with medium containing 0.5 μM cathepsin L inhibitor III at 7 hpi. 72 hpi the medium was harvested and virus was pelleted through a 35% sucrose cushion. The pelleted Vero-derived (VeD) virus was resuspended in buffer (pH5.5) containing 50 ng/d cathepsin L or vehicle.
(§1) At 72 hpi the medium was collected and virus pelleted through a 35% sucrose cushion to partially purify and concentrate it. The virus pellet was resuspended and half was further purified by linear sucrose density gradient. The G protein from these purified virions was analyzed by immunoblot. The G protein from HeLa cell virions migrated at 90 kDa and was not affected by the inhibitor (FIG. 5A). […] FIG. 5A was generated by inoculating HeLa or Vero cells for 2 h and treating them with cathepsin L inhibitor or DMSO beginning at 8 hpi.
The effect of protease inhibitors on the infectivity of RSV produced by Vero and HeLa cells was tested by inoculating cells and 2 hpi media was changed. At 7 hpi medium containing […] cathepsin L inhibitor III (Calbiochem, San Diego, Calif.) or an equal volume of the vehicle, DMSO was added to the cells. […] Fractions containing virus were separated by SDS-PAGE and G protein detected by immunoblot using a mAb, L9 (Edward Walsh, University of Rochester).

[3] = tested on: G protein from HeLa cell virions; assay: Virion-associated G protein of rgRSV grown in HeLa cells with cathepsin L inhibitor (immunoblot); assay type: cell-based; conditions: inhibitor beginning at 8 hpi; virus collected 72 hpi; G migrated at 90 kDa
Procedure: as §1
The effect of protease inhibitors on the infectivity of RSV produced by Vero and HeLa cells was tested by inoculating cells and 2 hpi media was changed. At 7 hpi medium containing […] cathepsin L inhibitor III (Calbiochem, San Diego, Calif.) or an equal volume of the vehicle, DMSO was added to the cells. 72 hpi virus was harvested as described above, but instead of aliquoting and snap freezing, 15 ml of virus-containing medium was layered on top of 15 ml of 35% sucrose cushion in 1× Hanks Balanced Salt Solution, with calcium and magnesium, and centrifuged overnight at 4° C. and 26,000×g in an F14-14×50cy rotor for Sorvall Lynx 6000 (Thermo Fisher) to remove the drug and partially purify the virus. […] Fractions containing virus were separated by SDS-PAGE and G protein detected by immunoblot using a mAb, L9 (Edward Walsh, University of Rochester).

HAE cultures = assay: Infection of HAE cultures by rgRSV produced in the presence of cathepsin L inhibitor; assay type: cell-based, human
Procedure: as §1
The remaining virus that had been partially purified through the 35% sucrose cushion was titrated on HeLa cells. Equivalent amounts of infectious virus, determined on HeLa cells, were used to inoculate HAE cultures. […] For FIG. 5B, equivalent amount of infectious virus, determined by titration on HeLa cells, was used to inoculate HAE cultures. 48 hpi green cells were counted. *p<0.0001 (unpaired, 2-tailed t-test).
Primary, well-differentiated human airway epithelial (HAE) cultures were generated from human airway tissue (Fulcher et al., Methods Mol Med (2005) 107:183-206). For infection experiments they were grown on collagen coated Trans-well inserts (Corning Incorporated). […]
The effect of protease inhibitors on the infectivity of RSV produced by Vero and HeLa cells was tested by inoculating cells and 2 hpi media was changed. […] Fractions containing virus were separated by SDS-PAGE and G protein detected by immunoblot using a mAb, L9 (Edward Walsh, University of Rochester).
The apical surface of well-differentiated HAE cultures in Trans-wells was washed with DPBS for 2 h and the basal medium changed before equivalent pfu (titrated in HeLa cells), between 2,000 and 10,000 pfu, depending on the HAE culture source, were diluted in HAE medium and added to the apical chamber of the Trans-well. […] Fluorescent (green) cells were visualized with an EVOS fl inverted fluorescence microscope (Life Technologies) and counted in HeLa cultures at 24 hpi and on HAE cultures at 48 hpi. Three or more experiments were pooled and analyzed together.

Compound: CC(C)(C)Oc1ccc(C[C@H](NC(=O)[C@H](Cc2ccccc2)NC(=O)OCc2ccccc2)C(=O)C=[N+]=[N-])cc1 [cathepsin L inhibitor III] (Cbz-Phe-Tyr(tBu)-CHN2)
- G protein cleavage (cell surface G protein) [1]: prevention of cleavage; also recorded: almost completely prevented G protein cleavage
- migration of G protein from Vero cell virions ([2]; inhibitor beginning at 8 hpi, virus collected 72 hpi, without inhibitor primarily 55 kDa): converted to 90 kDa
- virion-associated G protein cleavage [2]: cleavage is prevented
- virion-associated G protein cleavage ([2]; listed as cathepsin L inhibitor): cleavage prevention
- migration of G protein from HeLa cell virions [3]: not affected
- ability of Vero-derived virus to infect HAE cells (HAE cultures; inhibitor present during viral production): increasing the ability of Vero-derived virus to infect HAE cells
- effect on ability of HeLa grown virus to infect HAE cultures (HAE cultures; inhibitor present during virus production in HeLa, green cells counted 48 hpi): little, if any, effect
- increase in ability of Vero-grown virus to infect HAE cells (HAE cultures; inhibitor present during virus production in Vero, green cells counted 48 hpi, vs DMSO): 7 fold

Reference: US10758607B2, “Respiratory syncytial virus having cleavage-resistant G protein and related materials and methods” (The Research Institute at Nationwide Children's Hospital, priority 2015, dated 2020)
